Measurements reported in patent US7091198B1, “2,5-disubstituted pyrimidine derivatives” (Bayer HealthCare AG, priority 2002, dated 2006).

Tested on: cGMP in primary cortical neurons
Assay: Increase of cGMP in primary cortical neurons
Assay type: cell-based
Settings: Primary cortical neuron, 20 min; rat embryonic primary cortical neurons; 20 min incubation at 37° C. with IBMX; triplicate determination; more than 2-fold increase compared with the control; read-out: concentration leading to a statistically significant increase in cGMP
Procedure: Increase of cGMP in Primary Cortical Neurons
Rat embryos (embryonic day 17–19) are decapitated, and the cerebrum is removed and incubated with 5 ml of papain solution and 250 μl of DNAse (papain kit from Cell-System) at 37° C. for 30 min, homogenized using a Pasteur pipette and centrifuged at 1200 rpm for 5 min. The supernatant is removed, the cell pellet resuspended (in 2.7 ml of EBSS [Earl's balanced salt solution], 300 μl of ovomucoid/albumin (conc.) solution, 150 μl of DNAse; papain kit from Cell-System), layered over 5 ml of ovomucoid/albumin solution and centrifuged at 700 rpm for 6 min. The supernatant is removed, the cells are resuspended in cultivation medium (Gibco neurobasal medium, B27 Supplement 50×1 ml/100 ml, 2 mM L-glutamine), counted (approx. 150 000 cells/well) and plated out on poly-D-lysine-coated 96-well plates (Costar) with 200 μl/well. After 6–7 days at 37° C. (5% CO2), the neurons are freed of culture medium and washed once with assay buffer (154 mM NaCl, 5.6 mM KCl, 2.3 mM CaCl2.2H2O, 1 mM MgCl2, 5.6 mM glucose, 8.6 mM HEPES (4-(2-hydroxyethyl)piperazine-1-ethanesulfonic acid), pH=7.4). 100 μl/well test substance are dissolved in assay buffer and then 100 μl/well IBMX (3-isobutyl-1-methylxanthine; dissolved in 50 mM ethanol, diluted with assay buffer to a final concentration of 100 μM) are added. After incubation at 37° C. for 20 min, the assay buffer is replaced by 200 μl/well of lysis buffer (cGMP EIA RPN 226 from Amersham Pharmacia Biotech), and the cGMP content of the lystates is determined using an EIA assay kit.
The concentrations indicated in Table 1 lead to a statistically significant increase in cGMP (triplicate determination; more than 2-fold increase compared with the control)

CO[C@H]1CN(c2cnc(-c3nn(Cc4ccccc4F)c4ncccc34)nc2)C[C@@H]1OC [Example 6]
minimal effective concentration: 0.27 µM

Fc1ccccc1Cn1nc(-c2ncc(N3CC4CNCC(C3)O4)cn2)c2cccnc21 [Example 10]
minimal effective concentration: 1.2 µM

O=C1CCCCC1c1cnc(-c2nn(Cc3ccccc3F)c3ncccc23)nc1 (centres unmarked) [Example 13, 2-{2-[1-(2-Fluorobenzyl)-1H-pyrazol[3,4-b]pyridin-3-yl]-5-pyrimidinyl}-cyclohexanone]
minimal effective concentration: 0.27 µM

Fc1ccccc1Cn1nc(-c2ncc(N3CC4CCC(C3)O4)cn2)c2cccnc21 [Example 19, 1-(2-Fluorobenzyl)-3-[5-(8-oxa-3-azabicyclo[3.2.1]oct-3-yl)-2-pyrimidinyl]-1H-pyrazolo[3,4-b]pyridine]
minimal effective concentration: 0.27 µM

CO[C@H]1CCN(c2cnc(-c3nn(Cc4ccccc4F)c4ncccc34)nc2)C1 [Example 20, 1-(2-Fluorobenzyl)-3-{5-[(3S)-3-methoxy-1-pyrrolidinyl]-2-pyrimidinyl}-1 H-pyrazolo[3,4-b]pyridine]
minimal effective concentration: 0.27 µM

COc1ccccc1-c1cnc(-c2nn(Cc3ccccc3F)c3ncccc23)nc1 [Example 27]
minimal effective concentration: 0.9 µM

Fc1ccccc1Cn1nc(-c2ncc(-c3cn[nH]c3C3CC3)cn2)c2cccnc21 [Example 36, 3-[5-(5-Cyclopropyl-1H-pyrazol-4-yl)-2-pyrimidinyl]-1-(2-fluorobenzyl)-1 H-pyrazolo[3,4-b]pyridine]
minimal effective concentration: 0.27 µM

O=C1CCN(c2cnc(-c3nn(Cc4ccccc4F)c4ncccc34)nc2)C1 [Example 38, 1-{2-[1-(2-Fluorobenzyl)-1H-pyrazol[3,4-b]pyridin-3-yl]-5-pyrimidinyl}-3-pyrrolidinone]
minimal effective concentration: 0.27 µM
